{"source": "patent US6503931B1", "about": "“Use of 4-amino pyridine for treatment of peripheral neuropathies” (The UAB Research Foundation, priority 1999, dated 2003)", "type_in_all_cases": "in vivo, human", "key": {"subjects with GBS [1]": {"system": "subjects with GBS", "experiment": "Serum laboratories drawn at start and every week of the study", "text": "This was a Phase I double-blind, placebo controlled, crossover, dose escalating study in subjects with GBS similar to those proposed for MS and SCI. An initial trial of ten patients will be randomized to […] of the two treatment sequences (A or B) as shown below.\nThe study population consists of subjects with GBS injury whose neurological status has been stable for at least eighteen months. Ten subjects will be enrolled.\nIn addition, serum laboratories were drawn at the beginning of the study and every week of the study. The serum laboratories included glucose, blood urea nitrogen, creatinine, uric acid, calcium, total protein, albumin, phosphate, total bilirubin, cholesterol, LDH, SGOT/AST, alkaline phosphatase, hematocrit, hemoglobin, red blood cell count, platelet count, and white blood cell count with differential."}, "subjects with GBS [2]": {"system": "subjects with GBS", "experiment": "Hand grip strength on hand dynamometer, same study", "settings": "hand-held dynamometer; p=0.0243 paired Student's t-test; repeated measures ANOVA p=0.0715; FIG. 3", "description": "This was a Phase I double-blind, placebo controlled, crossover, dose escalating study in subjects with GBS similar to those proposed for MS and SCI. An initial trial of ten patients will be randomized to […] of the two treatment sequences (A or B) as shown below. The study population consists of subjects with GBS injury whose neurological status has been stable for at least eighteen months. Ten subjects will be enrolled. Hand grip strength was measured on a hand dynamometer that had been calibrated. Each patient was given three trials separated by thirty second rest periods and the strongest of the three measurements was recorded for each hand. [table]"}, "subjects with GBS [3]": {"system": "subjects with GBS", "experiment": "Motor strength on 0-5 ordinal scale, Phase I double-blind placebo controlled crossover study", "text": "This was a Phase I double-blind, placebo controlled, crossover, dose escalating study in subjects with GBS similar to those proposed for MS and SCI. An initial trial of ten patients will be randomized to […] of the two treatment sequences (A or B) as shown below. The study population consists of subjects with GBS injury whose neurological status has been stable for at least eighteen months. Ten subjects will be enrolled. Motor strength was rated on the traditional 0-5 ordinal scale: 0—absent motor strength 1—trace motor strength 2—can move the specified joint but only with gravity eliminated 3—can move the joint against gravity but not against any opposing force 4—can move the joint against opposing force but the strength is not normal for the person or symmetrical 5—normal motor strength This scale was employed to measure the following motor strength for each of these joint motions on both the right and the left sides: hip flexion, hip adduction, hip abduction, knee flexion, knee extension, ankle dorsi-flexion, ankle plantar flexion, shoulder abduction, elbow extension, elbow flexion, wrist flexion, and wrist extension. [table]"}, "[4]": {"settings": "serum laboratory, before change"}, "[5]": {"settings": "serum laboratory, statistically significant, not clinically significant"}}}
{"smiles": "Nc1ccncc1", "note": "[4-aminopyridine]", "values": [{"measurement": "Hematocrit, starting value", "setting": "subjects with GBS [1]; before change", "result": 42.7}, {"measurement": "All other laboratories, change while on the active agent", "setting": "subjects with GBS [1]; glucose, BUN, creatinine, calcium, proteins, bilirubin, cholesterol, LDH, alkaline phosphatase, blood counts etc.", "result": "no significant change"}, {"measurement": "SGOT, starting value", "setting": "subjects with GBS [1]; [4]", "result": 25.1}, {"measurement": "Uric acid, starting value", "setting": "subjects with GBS [1]; [4]", "result": 6.4}, {"measurement": "SGOT, after change on the active agent", "setting": "subjects with GBS [1]; [5]", "result": 27.9}, {"measurement": "Uric acid, after change on the active agent", "setting": "subjects with GBS [1]; [5]", "result": 6.5}, {"measurement": "Hematocrit, after change on the active agent", "setting": "subjects with GBS [1]; statistically significant, not clinically significant", "result": 41.6}, {"measurement": "Grip strength, start of study compared to after four weeks of treatment", "setting": "subjects with GBS [2]", "result": "increased significantly"}, {"measurement": "Lower extremity strength, average motor score on the active medication", "setting": "subjects with GBS [3]; 0-5 scale, 10-20 mg bid escalating, p<0.0001, Friedeman's, FIG. 1", "result": 3.7}, {"measurement": "Upper extremity strength, average motor score after increase", "setting": "subjects with GBS [3]; 0-5 scale, 10-20 mg bid escalating, p=0.0065, Friedeman's, FIG. 2", "result": 3.7}, {"measurement": "Upper extremity strength, average motor score, starting value", "setting": "subjects with GBS [3]; 0-5 scale, value before increase, FIG. 2", "result": 3.2}, {"measurement": "Lower extremity strength, average motor score, starting value", "setting": "subjects with GBS [3]; 0-5 scale, value before increase, seven GBS patients, FIG. 1", "result": 3.2}, {"measurement": "Duration of neural biological effects after stopping the drug", "setting": "subjects with GBS [3]; patients on active agent first, motor and grip strength continued to drop for up to two additional weeks after one week washout", "result": "more than two weeks"}]}
